From article PMC6327040, “A novel scaffold for EGFR inhibition: Introducing N-(3-(3-phenylureido)quinoxalin-6-yl) acrylamide derivatives” (Scientific Reports, 2019)

Experiments:
EGFRwt = EGFRwt (Homo sapiens, UniProt P00533); assay: HTRF KinEASE-TK biochemical assay (TR-FRET), EGFRwt
Procedure: (§1) An artificial substrate peptide (TK-substrate from Cisbio) was phosphorylated by EGFR. After completion of the reaction (reaction times: 25 min for wild-type, 15 min for L858R, 20 min for T790M/L858R), the reaction was stopped by addition of a buffer containing EDTA as well as, an anti-phosphotyrosine antibody labeled with europium cryptate and streptavidin labeled with the fluorophore XL665. FRET between europium cryptate and XL665 was measured after an additional hour of incubation to quantify the phosphorylation of the substrate peptide. […] Kinase and inhibitor were preincubated for 30 min (EGFR-wt) and 1 h (EGFR-L858R and EGFR-L858R/T790M) before the reaction was started by addition of ATP and substrate peptide. An EnVision multimode plate reader (Perkin Elmer) was used to measure the fluorescence of the samples at 620 nm (Eu-labeled antibody) and 665 nm (XL665 labeled streptavidin) 50 μs after excitation at 320 nm. The quotient of both intensities for reactions made with eight different inhibitor concentrations was then analyzed using the Quattro Software Suite for IC50-determination. Each reaction was performed in duplicate, and at least three independent determinations of each IC50 were made.

EGFRL858R = EGFRL858R (Homo sapiens, UniProt P00533, L858R); assay: HTRF KinEASE-TK biochemical assay (TR-FRET), EGFR-L858R
Procedure: as §1

EGFRL858R/T790M = EGFRL858R/T790M (Homo sapiens, UniProt P00533, L858R/T790M); assay: HTRF KinEASE-TK biochemical assay (TR-FRET), EGFR-L858R/T790M
Procedure: as §1

[1] = enzymatic in vitro determination

Sequence of EGFRwt (P00533 25-1210): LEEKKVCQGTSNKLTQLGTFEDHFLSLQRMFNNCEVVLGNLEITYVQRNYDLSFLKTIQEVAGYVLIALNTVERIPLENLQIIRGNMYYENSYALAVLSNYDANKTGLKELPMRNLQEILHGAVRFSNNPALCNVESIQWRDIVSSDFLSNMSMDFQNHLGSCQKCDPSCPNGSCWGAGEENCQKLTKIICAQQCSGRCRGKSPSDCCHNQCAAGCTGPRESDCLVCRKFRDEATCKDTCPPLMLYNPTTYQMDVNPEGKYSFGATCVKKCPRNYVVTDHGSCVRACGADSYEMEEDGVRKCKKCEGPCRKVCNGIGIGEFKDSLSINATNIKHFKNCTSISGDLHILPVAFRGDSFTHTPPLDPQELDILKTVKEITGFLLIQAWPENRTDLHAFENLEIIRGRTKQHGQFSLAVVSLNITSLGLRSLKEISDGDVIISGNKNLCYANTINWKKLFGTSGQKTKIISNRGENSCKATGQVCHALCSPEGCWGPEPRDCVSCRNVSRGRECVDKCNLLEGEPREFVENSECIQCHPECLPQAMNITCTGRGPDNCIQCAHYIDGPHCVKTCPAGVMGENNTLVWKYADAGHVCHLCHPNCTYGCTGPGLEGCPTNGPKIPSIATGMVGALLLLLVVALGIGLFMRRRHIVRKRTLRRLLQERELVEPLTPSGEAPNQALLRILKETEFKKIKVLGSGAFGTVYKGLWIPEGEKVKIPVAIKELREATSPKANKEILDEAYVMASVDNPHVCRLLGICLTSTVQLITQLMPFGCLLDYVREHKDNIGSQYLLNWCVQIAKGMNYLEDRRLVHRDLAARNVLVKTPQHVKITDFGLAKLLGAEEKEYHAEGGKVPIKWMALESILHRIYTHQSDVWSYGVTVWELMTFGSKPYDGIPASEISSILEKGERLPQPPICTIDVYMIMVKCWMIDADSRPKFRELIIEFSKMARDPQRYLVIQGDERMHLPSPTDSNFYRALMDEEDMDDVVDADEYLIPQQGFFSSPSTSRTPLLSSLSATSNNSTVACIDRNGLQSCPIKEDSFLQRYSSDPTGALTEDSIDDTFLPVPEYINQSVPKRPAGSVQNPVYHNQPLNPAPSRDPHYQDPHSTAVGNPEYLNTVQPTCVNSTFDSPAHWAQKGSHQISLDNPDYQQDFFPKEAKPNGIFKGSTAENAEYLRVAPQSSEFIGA
Sequence of EGFRL858R (P00533 25-1210 L858R): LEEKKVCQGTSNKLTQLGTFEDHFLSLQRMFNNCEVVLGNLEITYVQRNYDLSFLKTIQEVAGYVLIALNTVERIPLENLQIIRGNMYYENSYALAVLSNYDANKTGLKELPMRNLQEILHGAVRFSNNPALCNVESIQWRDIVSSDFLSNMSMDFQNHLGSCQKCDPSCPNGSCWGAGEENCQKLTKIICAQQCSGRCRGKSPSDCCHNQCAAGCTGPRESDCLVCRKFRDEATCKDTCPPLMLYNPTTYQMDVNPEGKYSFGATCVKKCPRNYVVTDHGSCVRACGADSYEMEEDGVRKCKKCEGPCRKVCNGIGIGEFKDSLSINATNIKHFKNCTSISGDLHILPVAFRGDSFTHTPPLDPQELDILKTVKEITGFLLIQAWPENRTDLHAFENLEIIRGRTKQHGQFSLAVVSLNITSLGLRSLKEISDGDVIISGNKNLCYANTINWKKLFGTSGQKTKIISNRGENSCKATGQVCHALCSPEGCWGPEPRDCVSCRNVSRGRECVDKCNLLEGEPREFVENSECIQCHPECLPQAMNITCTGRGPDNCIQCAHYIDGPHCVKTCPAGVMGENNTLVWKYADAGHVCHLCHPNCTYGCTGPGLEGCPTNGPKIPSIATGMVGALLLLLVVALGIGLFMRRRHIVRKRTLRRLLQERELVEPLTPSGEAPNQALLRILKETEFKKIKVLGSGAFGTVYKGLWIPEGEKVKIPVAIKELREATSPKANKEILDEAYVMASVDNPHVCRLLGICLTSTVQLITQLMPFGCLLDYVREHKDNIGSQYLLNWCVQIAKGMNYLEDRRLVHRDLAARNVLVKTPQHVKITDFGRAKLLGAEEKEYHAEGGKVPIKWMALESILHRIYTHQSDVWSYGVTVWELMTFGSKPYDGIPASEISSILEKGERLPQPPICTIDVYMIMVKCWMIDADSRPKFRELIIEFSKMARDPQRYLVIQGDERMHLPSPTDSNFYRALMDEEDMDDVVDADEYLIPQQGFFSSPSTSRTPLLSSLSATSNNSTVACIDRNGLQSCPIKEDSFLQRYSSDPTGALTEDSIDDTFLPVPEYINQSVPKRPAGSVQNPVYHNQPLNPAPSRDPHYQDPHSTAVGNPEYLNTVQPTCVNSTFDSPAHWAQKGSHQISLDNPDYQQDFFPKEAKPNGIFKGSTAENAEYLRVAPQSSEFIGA
Sequence of EGFRL858R/T790M (P00533 25-1210 T790M/L858R): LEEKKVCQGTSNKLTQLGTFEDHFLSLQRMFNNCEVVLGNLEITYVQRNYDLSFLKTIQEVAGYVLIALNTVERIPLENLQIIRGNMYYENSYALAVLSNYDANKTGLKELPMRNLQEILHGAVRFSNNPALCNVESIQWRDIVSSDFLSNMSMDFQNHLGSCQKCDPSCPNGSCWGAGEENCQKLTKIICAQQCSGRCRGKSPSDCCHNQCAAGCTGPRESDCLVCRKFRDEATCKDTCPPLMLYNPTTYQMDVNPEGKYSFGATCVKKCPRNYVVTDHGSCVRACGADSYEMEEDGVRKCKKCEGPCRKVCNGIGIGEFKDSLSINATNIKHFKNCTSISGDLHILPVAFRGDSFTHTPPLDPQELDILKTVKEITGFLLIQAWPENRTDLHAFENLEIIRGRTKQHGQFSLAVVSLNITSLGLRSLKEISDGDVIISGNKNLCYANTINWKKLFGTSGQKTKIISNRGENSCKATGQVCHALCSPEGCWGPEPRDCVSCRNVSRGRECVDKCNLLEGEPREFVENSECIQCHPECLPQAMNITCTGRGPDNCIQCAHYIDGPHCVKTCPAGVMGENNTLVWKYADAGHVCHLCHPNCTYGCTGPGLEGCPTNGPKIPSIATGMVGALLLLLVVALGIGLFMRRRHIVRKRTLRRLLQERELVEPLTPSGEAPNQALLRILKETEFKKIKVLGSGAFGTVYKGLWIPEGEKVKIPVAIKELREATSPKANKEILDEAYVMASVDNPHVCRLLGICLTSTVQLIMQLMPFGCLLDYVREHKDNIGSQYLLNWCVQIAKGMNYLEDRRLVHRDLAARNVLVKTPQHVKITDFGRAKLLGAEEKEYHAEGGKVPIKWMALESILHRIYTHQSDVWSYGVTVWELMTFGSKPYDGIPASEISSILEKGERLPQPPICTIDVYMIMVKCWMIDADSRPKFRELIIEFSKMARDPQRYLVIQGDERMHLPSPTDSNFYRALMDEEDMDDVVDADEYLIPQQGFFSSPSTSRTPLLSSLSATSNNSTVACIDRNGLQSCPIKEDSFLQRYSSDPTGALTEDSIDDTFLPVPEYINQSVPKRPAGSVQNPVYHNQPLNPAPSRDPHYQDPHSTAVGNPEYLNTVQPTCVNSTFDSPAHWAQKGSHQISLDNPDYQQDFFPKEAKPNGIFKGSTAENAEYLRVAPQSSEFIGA

| Compound | melting point [°C] | IC50 (EGFRwt) [µM] | IC50 (EGFRL858R) [µM] | IC50 (EGFRL858R/T790M) [µM] | inhibitory activity on EGFRwt (in words) (EGFRwt; [1]) | inhibitory activity on EGFRL858R (in words) (EGFRL858R; [1]) | inhibitory activity on EGFRL858R/T790M (in words) (EGFRL858R/T790M; [1]) |
| --- | --- | --- | --- | --- | --- | --- | --- |
| C=CC(=O)Nc1ccc2ncc(NC(=O)Nc3ccc(Cl)c(C(F)(F)F)c3)nc2c1 [Compound 7a, N-(3-(3-(4-chloro-3-(trifluoromethyl)phenyl)ureido)quinoxalin-6-yl) acrylamide] | 272 to 274 | > 10 | > 10 | > 10 |  |  |  |
| C/C=C/C(=O)Nc1ccc2ncc(NC(=O)Nc3ccc(Cl)c(C(F)(F)F)c3)nc2c1 [Compound 7b, (E)-N-(3-(3-(4-chloro-3-(trifluoromethyl)phenyl)ureido)quinoxalin-6-yl)but-2-enamide] | 277 to 280 | > 10 | > 10 | > 10 |  |  |  |
| O=C(CCl)Nc1ccc2ncc(NC(=O)Nc3ccc(Cl)c(C(F)(F)F)c3)nc2c1 [Compound 7c, 2-chloro-N-(3-(3-(4-chloro-3-(trifluoromethyl)phenyl)ureido)quinoxalin-6-yl)acetamide] | 253 to 255 | > 10 | 3.24 ± 1.26 | 2.71 ± 0.412 |  |  |  |
| N#CCC(=O)Nc1ccc2ncc(NC(=O)Nc3ccc(Cl)c(C(F)(F)F)c3)nc2c1 [Compound 7d, N-(3-(3-(4-chloro-3-(trifluoromethyl)phenyl)ureido)quinoxalin-6-yl)-2-cyanoacetamide] | 243 to 246 | > 10 | > 10 | 9.87 ± 0.265 |  |  |  |
| CN(C)C/C=C/C(=O)Nc1ccc2ncc(NC(=O)Nc3ccc(Cl)c(C(F)(F)F)c3)nc2c1 [Compound 7e, (E)-N-(3-(3-(4-chloro-3-(trifluoromethyl)phenyl)ureido)quinoxalin-6-yl)-4-(dimethylamino)but-2-enamide] | 217 to 220 | > 10 | > 10 | 6.14 ± 3.47 |  |  |  |
| C=CC(=O)Nc1ccc2ncc(NC(=O)Nc3cccc(C(F)(F)F)c3)nc2c1 [Compound 7f, N-(3-(3-(3-(trifluoromethyl)phenyl)ureido)quinoxalin-6-yl)acrylamide] | 268 to 271 | 2.5 ± 0.735 | 2.16 ± 1.62 | > 10 | weak activity | weak activity | no inhibitory activity |
